US9586951B2 (FUJIFILM Corporation, priority 2013, dated 2017)

Target: T1, ATM (Homo sapiens, UniProt Q13315)
T1 construct: detecting phosphorylation of Chk2 in a human non-small cell lung cancer cell line NCI-H460 (ATCC company); host or cells: NCI-H460 human non-small cell lung cancer cells
Assay: ATM inhibition test (phosphorylation of Chk2 generated by ionizing radiation, AlphaScreen SureFire)
Type: cell-based
Details: phosphorylated Chk2 in NCI-H460 cells, ionizing radiation 8Gy, 1 hour after test compound treatment; read-out: ATM inhibitory activity
Procedure, shortened: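 NCI-H460 cells treated with compound for 1 hour, then irradiated with 8Gy and incubated 1 hour at 37° C. Phospho-Chk2 measured by AlphaScreen SureFire. Inhibition ratio calculated relative to untreated irradiated and non-irradiated wells.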

T1 sequence (Q13315 whole entry): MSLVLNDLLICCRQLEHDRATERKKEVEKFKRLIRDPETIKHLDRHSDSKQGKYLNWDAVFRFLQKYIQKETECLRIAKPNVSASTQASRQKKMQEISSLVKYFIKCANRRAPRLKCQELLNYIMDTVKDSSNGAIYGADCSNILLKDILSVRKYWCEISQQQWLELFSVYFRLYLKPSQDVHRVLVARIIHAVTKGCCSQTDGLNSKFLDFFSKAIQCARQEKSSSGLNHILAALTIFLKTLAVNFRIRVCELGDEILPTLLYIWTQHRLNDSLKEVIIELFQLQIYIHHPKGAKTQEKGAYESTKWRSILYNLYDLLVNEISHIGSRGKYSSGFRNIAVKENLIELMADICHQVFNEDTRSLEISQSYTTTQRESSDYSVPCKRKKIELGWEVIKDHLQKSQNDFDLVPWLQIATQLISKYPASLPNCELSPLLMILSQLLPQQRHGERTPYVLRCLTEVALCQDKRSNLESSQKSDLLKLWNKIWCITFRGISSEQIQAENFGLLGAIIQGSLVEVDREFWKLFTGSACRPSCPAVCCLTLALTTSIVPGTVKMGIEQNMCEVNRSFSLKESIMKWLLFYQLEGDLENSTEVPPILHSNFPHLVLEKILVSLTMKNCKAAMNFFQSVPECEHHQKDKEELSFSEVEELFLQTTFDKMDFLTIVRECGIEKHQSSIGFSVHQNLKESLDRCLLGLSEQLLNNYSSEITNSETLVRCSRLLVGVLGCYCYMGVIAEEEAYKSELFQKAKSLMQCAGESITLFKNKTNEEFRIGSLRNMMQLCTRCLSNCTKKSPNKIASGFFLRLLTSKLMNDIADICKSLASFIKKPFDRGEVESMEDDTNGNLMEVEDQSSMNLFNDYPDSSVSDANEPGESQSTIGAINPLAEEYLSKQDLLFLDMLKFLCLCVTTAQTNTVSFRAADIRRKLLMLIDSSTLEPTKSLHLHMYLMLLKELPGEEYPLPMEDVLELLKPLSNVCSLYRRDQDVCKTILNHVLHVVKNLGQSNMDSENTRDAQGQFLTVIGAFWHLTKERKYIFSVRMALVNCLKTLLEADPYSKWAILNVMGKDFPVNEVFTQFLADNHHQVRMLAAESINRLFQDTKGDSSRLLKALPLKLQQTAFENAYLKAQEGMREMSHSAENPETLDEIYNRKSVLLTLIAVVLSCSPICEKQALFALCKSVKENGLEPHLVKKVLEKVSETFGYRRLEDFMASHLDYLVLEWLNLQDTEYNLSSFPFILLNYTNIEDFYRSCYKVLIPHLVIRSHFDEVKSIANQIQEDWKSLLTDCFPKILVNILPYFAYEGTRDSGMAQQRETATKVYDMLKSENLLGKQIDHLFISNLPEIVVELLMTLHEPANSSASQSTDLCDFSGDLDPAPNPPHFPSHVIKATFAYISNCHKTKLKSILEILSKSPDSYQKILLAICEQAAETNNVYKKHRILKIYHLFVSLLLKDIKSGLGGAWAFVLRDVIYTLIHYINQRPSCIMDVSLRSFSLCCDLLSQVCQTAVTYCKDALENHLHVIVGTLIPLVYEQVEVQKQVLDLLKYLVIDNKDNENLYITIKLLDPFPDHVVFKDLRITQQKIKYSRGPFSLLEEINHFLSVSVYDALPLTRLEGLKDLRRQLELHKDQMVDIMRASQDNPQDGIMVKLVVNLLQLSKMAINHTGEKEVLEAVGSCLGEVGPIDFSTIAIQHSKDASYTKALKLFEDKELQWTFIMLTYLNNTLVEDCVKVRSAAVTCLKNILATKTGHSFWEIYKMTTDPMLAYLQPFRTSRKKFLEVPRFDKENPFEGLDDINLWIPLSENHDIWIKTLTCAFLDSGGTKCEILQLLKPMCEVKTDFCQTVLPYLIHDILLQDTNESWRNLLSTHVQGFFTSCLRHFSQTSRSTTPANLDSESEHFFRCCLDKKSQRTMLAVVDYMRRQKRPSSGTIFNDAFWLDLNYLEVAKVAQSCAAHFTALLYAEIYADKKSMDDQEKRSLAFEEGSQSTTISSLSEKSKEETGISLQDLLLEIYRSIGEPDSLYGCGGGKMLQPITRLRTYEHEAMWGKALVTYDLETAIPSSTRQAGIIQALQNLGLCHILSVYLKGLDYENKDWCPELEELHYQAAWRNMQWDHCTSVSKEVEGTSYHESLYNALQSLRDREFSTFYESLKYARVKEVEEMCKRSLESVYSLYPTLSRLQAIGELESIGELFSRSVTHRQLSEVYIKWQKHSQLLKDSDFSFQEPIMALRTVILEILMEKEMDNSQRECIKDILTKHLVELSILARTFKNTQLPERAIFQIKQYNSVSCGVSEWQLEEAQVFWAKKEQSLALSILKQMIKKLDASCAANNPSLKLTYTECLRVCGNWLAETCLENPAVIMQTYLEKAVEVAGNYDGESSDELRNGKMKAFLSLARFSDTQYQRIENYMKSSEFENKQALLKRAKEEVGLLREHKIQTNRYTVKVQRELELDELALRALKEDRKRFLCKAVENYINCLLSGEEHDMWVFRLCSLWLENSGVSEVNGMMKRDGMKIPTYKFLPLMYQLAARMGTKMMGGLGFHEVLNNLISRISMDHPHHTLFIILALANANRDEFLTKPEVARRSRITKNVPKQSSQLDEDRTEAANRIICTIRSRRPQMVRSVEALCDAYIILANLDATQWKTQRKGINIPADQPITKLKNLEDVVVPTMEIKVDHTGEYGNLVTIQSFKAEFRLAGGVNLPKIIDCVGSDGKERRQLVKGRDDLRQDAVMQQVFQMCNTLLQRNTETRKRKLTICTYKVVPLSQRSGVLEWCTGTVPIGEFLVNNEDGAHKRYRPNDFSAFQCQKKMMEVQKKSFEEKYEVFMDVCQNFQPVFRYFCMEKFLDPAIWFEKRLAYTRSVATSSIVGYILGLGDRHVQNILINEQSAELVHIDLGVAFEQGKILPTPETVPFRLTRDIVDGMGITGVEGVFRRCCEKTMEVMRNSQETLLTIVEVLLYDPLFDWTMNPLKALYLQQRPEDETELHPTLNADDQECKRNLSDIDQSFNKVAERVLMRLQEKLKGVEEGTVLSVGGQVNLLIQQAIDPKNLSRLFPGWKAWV

Structure (SMILES) | IC50 [nM]
Nc1cccc2c1Sc1cccc(-c3cc(N4CCOCC4)cc(=O)[nH]3)c1O2 [Example 4-3, 6-(9-Aminophenoxathiin-4-yl)-4-morpholinopyridin-2(1H)-one] | 100 to 500
Cc1ccc(C(CCN(C)C)Nc2ccc3c(c2)Sc2cccc(-c4cc(N5CCOCC5)cc(=O)[nH]4)c2S3)nc1 (single isomer, unassigned) [Example 1-51-5, 6-(7-((3-(Dimethylamino)-1-(5-methylpyridin-2-yl)propyl)amino)thianthren-1-yl)-4-morpholino pyridin-2 (1H)-one] | < 100
CC(CN1CCCC(O)C1)Nc1ccc2c(c1)Sc1cccc(-c3cc(N4CCOCC4)cc(=O)[nH]3)c1S2 (stereo not drawn) [Example 1-13-6, 6-(7-((1-(3-Hydroxypiperidin-1-yl)propan-2-yl)amino)thianthren-1-yl)-4-morpholino pyridin-2(1H)-one] | 100 to 500
Cc1ccc(C(Nc2ccc3c(c2)Sc2cccc(-c4cc(N5CCOCC5)cc(=O)[nH]4)c2S3)C2CNCCO2)nc1 (single isomer, unassigned) [Example 1-55-1, 6-(7-(((5-methylpyridin-2-yl)(morpholin-2-yl)methyl)amino)thianthren-1-yl)-4-morpholinopyridin-2(1H)-one] | < 100
Cc1ccc(C(Nc2ccc3c(c2)Sc2cccc(-c4cc(N5CCOCC5)cc(=O)[nH]4)c2S3)C2CCN(C)C2)nc1 (single isomer, unassigned) [Example 10-3-5] | < 100
COc1cc(CNc2ccc3c(c2)Sc2cccc(-c4cc(N5CCOCC5)cc(=O)[nH]4)c2O3)ccn1 [Example 4-8-4, 6-(8-(((2-Methoxypyridin-4-yl)methyl)amino)phenoxathiin-4-yl)-4-morpholino pyridin-2(1H)-one] | 100 to 500
CCCCC(Nc1ccc2c(c1)Sc1cccc(-c3cc(N4CCOCC4)cc(=O)[nH]3)c1S2)[C@H](C)N (stereo partly drawn) [Example 1-20-3, 6-(7-(((2S)-2-Aminoheptan-3-yl)amino)thianthren-1-yl)-4-morpholino pyridin-2(1H)-one] | 100 to 500
Cc1ccc(C(Nc2ccc3c(c2)Sc2cccc(-c4cc(N5CCOCC5)cc(=O)[nH]4)c2S3)[C@H]2CCCN2C)nc1 (single isomer, unassigned) [Example 1-56-4] | 100 to 500
Cn1cc(-c2cncc(CNc3ccc4c(c3)Cc3cccc(-c5cc(N6CCOCC6)cc(=O)[nH]5)c3O4)c2)cn1 [Example 2-2-49, 6-(7-(((5-(1-Methyl-1H-pyrazol-4-yl)pyridin-3-yl)methyl)amino)-9H-xanthen-4-yl)-4-morpholino pyridin-2(1H)-one] | 100 to 500
O=c1cc(N2CCOCC2)cc(-c2cccc3c2Sc2ccc(N[C@H](CCN4CCOCC4)CN4CCOCC4)cc2S3)[nH]1 [Example 8-1, (R)-6-(7-((1,4-dimorpholinobutan-2-yl)amino)thianthren-1-yl)-4-morpholinopyridin-2(1H)-one] | 100 to 500
COc1ccc(CNc2ccc3c(c2)Sc2cccc(-c4cc(N5CCOCC5)cc(=O)[nH]4)c2O3)cn1 [Example 4-8-11, 6-(8-(((6-Methoxypyridin-3-yl)methyl)amino)phenoxathiin-4-yl)-4-morpholino pyridin-2(1H)-one] | 100 to 500
O=c1cc(N2CCOCC2)cc(-c2cccc3c2Oc2ccc(NCc4cnccc4Cl)cc2C3)[nH]1 [Example 2-14-4, 6-(7-(((4-Chloropyridin-3-yl)methyl)amino)-9H-xanthen-4-yl)-4-morpholino pyridin-2(1H)-one] | 100 to 500
CCCC(Nc1ccc2c(c1)Sc1cccc(-c3cc(N4CCOCC4)cc(=O)[nH]3)c1S2)[C@H](C)N1CCOCC1 (stereo partly drawn) [Example 1-21-1, 6-(7-(((2S)-2-morpholinohexan-3-yl)amino)thianthren-1-yl)-4-morpholinopyridin-2(1H)-one] | 100 to 500
CC(CN1CCC1)Nc1ccc2c(c1)Sc1cccc(-c3cc(N4CCOCC4)cc(=O)[nH]3)c1S2 (stereo not drawn) [Example 1-43-1, 6-(7-((1-(azetidin-1-yl)propan-2-yl)amino)thianthren-1-yl)-4-morpholinopyridin-2(1H)-one] | 100 to 500
O=c1cc(N2CCOCC2)cc(-c2cccc3c2Oc2ccc(NC4CCN(c5cccnc5)CC4)cc2C3)[nH]1 [Example 2-2-28, 4-Morpholino-6-(7-((l-(pyridin-3-yl)piperidin-4-yl)amino)-9H-xanthen-4-yl) pyridin-2(1H)-one] | 100 to 500
O=c1cc(N2CCOCC2)cc(-c2cccc3c2Sc2ccc(NC(CN4CCCCC4)CN4CCOCC4)cc2S3)[nH]1 (stereo not drawn) [Example 1-39, 4-morpholino-6-(7-((1-morpholino-3-(piperidin-1-yl)propan-2-yl)amino)thianthren-1-yl)pyridin-2(1H)-one] | 100 to 500
CN(C)CC(CN1CCOCC1)Nc1ccc2c(c1)Sc1cccc(-c3cc(N4CCOCC4)cc(=O)[nH]3)c1S2 (stereo not drawn) [Example 9-3, 6-(7-((1-(Dimethylamino)-3-morpholinopropan-2-yl)amino)thianthren-1-yl)-4-morpholinopyridin-2(1H)-one] | 500 to 2000

The next lines start with the values.

IC50 [nM] | Structure (SMILES)
< 100 | CC(CN1CCOCC1)Nc1ccc2c(c1)Sc1cccc(-c3cc(N4CCOCC4)cc(=O)[nH]3)c1S2 (single isomer, unassigned) [Example 1-13-2-2, 4-morpholino-6-(7-((1-morpholinopropan-2-yl)amino)thianthren-1-yl)pyridin-2(1H)-one]
100 to 500 | CC(CN1CCN(c2ccncc2)CC1)Nc1ccc2c(c1)Sc1cccc(-c3cc(N4CCOCC4)cc(=O)[nH]3)c1S2 (stereo not drawn) [Example 1-13-16, 4-Morpholino-6-(7-((1-(4-(pyridin-4-yl)piperazin-1-yl)propan-2-yl)amino)thianthren-1-yl)pyridin-2 (1H)-one]
100 to 500 | CC(CNC1CCCCC1)Nc1ccc2c(c1)Sc1cccc(-c3cc(N4CCOCC4)cc(=O)[nH]3)c1S2 (stereo not drawn) [Example 1-13-7, 6-(7-((1-(Cyclohexylamino)propan-2-yl)amino)thianthren-1-yl)-4-morpholino pyridin-2(1H)-one]
100 to 500 | Cc1ccnc(C(C)Nc2ccc3c(c2)Cc2cccc(-c4cc(N5CCOCC5)cc(=O)[nH]4)c2O3)n1 (stereo not drawn) [Example 2-14-79, 6-(7-((1-(4-Methylpyrimidin-2-yl)ethyl)amino)-9H-xanthen-4-yl)-4-morpholino pyridin-2(1H)-one]
100 to 500 | CCNCC(Nc1ccc2c(c1)Sc1cccc(-c3cc(N4CCOCC4)cc(=O)[nH]3)c1S2)c1cccc(C)n1 (stereo not drawn) [Example 1-34-1, 6-(7-((2-(ethylamino)-1-(6-methylpyridin-2-yl)ethyl)amino)thianthren-1-yl)-4-morpholinopyridin-2(1H)-one]
100 to 500 | CC(Nc1ccc2c(c1)Cc1ccnc(-c3cc(N4CCOCC4)cc(=O)[nH]3)c1O2)c1cccc(F)n1 (stereo not drawn) [Example 2-41-13, 6-(7-((1-(6-Fluoropyridin-2-yl)ethyl)amino)-5H-chromeno[2,3-c]pyridin-1-yl]-4-morpholino pyridin-2(1H)-one]
500 to 2000 | O=c1cc(N2CCOCC2)cc(-c2cccc3c2Oc2ccc(NC4CCN(CCCc5ccccc5)CC4)cc2C3)[nH]1 [Example 2-28-34, 4-Morpholino-6-(7-((1-(3-phenylpropyl)piperidin-4-yl)amino)-9H-xanthen-4-yl) pyridin-2(1H)-one]
100 to 500 | CN(C)c1nccc(CNc2ccc3c(c2)Sc2cccc(-c4cc(N5CCOCC5)cc(=O)[nH]4)c2S3)n1 [Example 1-12-40, 6-(7-(((2-(Dimethylamino)pyrimidin-4-yl)methyl)amino)thianthren-1-yl)-4-morpholino pyridin-2(1H)-one]
100 to 500 | O=c1cc(N2CCOCC2)nc(-c2cccc3c2Oc2ccc(NCc4cc(Cl)ccn4)cc2C3)[nH]1 [Example 2-52-3, 2-(7-(((4-Chloropyridin-2-yl)methyl)amino)-9H-xanthen-4-yl)-6-morpholinopyrimidine-4(3H)-one]
100 to 500 | O=c1cc(N2CCOCC2)cc(-c2cccc3c2Oc2ccc(NC4CCCN(CCc5ccccc5)CC4)cc2S3)[nH]1 (stereo not drawn) [Example 4-6-2, 4-Morpholino-6-(8-((1-phenethylazepan-4-yl)amino)phenoxathiin-4-yl)pyridin-2(1H)-one]
100 to 500 | O=c1cc(N2CCOCC2)cc(-c2cccc3c2Oc2ccc(NCc4ccnc(Cl)c4F)cc2C3)[nH]1 [Example 2-2-19, 6-(7-(((2-Chloro-3-fluoropyridin-4-yl)methyl)amino)-9H-xanthen-4-yl)-4-morpholino pyridin-2(1H)-one]
100 to 500 | CCC(C(=O)Nc1ccc2c(c1)Sc1cccc(-c3cc(N4CCOCC4)cc(=O)[nH]3)c1S2)N1CCOCC1 (stereo not drawn) [Example 1-6-2, 2-Morpholino-N-(6-(4-morpholino-6-oxo-1,6-dihydropyridin-2-yl)thianthren-2-yl)butanamide]

Test system: human non-small cell lung cancer cell line NCI-H460
Assay: Cell proliferation inhibition test by sensitivity-enhancing to ionizing radiation (Cell Titer Glo)
Type: cell-based
Details: Homo sapiens, NCI-H460, 120 h, concentration in which SER became 2; NCI-H460 cells, ionizing radiation 2 Gy, cultured 120 hour
Method: A human non-small cell lung cancer cell line NCI-H460 (ATCC company) was adjusted so as to be 2×10^3 cells/mL in a RPMI-1640 medium containing penicillin/streptomycin and FBS having a final concentration of 10%, and this was seeded by 100 μL per well in 96-well CellBIND® plates (Corning International Inc.). After 24 hours, the medium of cells was replaced with 100 μL of a medium including serially diluted liquid of the test compound or DMSO having a final concentration of 0.1%. 30 minutes after the medium was replaced, half of the plates were irradiated with ionizing radiation 2 Gy (Faxitron Bioptics, LLC, RX-650 type). The cells of the plates irradiated with ionizing radiation and the plates not being irradiated with ionizing radiation were cultured at 37° C. for 120 hour in 5% CO2. After a Cell Titer Glo reaction liquid of an equal volume was added to each well, the amount of luminescence was measured, according to the instruction book of Cell Titer Glo (Promega Corporation). Since the amount of luminescence is proportional to the ATP concentration in cells, the amount of luminescence was used as an indicator of the number of viable cells. Sensitivity-enhancing effects (SER) to ionizing radiation by the test compound was calculated by the following equation. SER=(amount of luminescence of wells including DMSO having a final concentration of 0.1% in the plates irradiated with ionizing radiation×amount of luminescence of wells including a compound in the plates not being irradiated with ionizing radiation)/(amount of luminescence of wells including the test compound in the plates irradiated with ionizing radiation×amount of luminescence of wells including DMSO having a final concentration of 0.1% in the plates not being irradiated with ionizing radiation)
SER at each compound concentration was plotted by nonlinear regression fit (FitModel (205)) by a sigmoidal dose-response equation using XLfit software (IDBS), and the concentration (SER2) in which SER became 2 was calculated.

Structure (SMILES) | SER2 (concentration at which the radiation sensitivity-enhancement ratio reaches 2) [nM]
CC(CN1CCOCC1)Nc1ccc2c(c1)Sc1cccc(-c3cc(N4CCOCC4)cc(=O)[nH]3)c1S2 (single isomer, unassigned) [Example 1-13-2-2, 4-morpholino-6-(7-((1-morpholinopropan-2-yl)amino)thianthren-1-yl)pyridin-2(1H)-one] | < 100
